Assays:
[1] = Analysis of impurities/degradation products by HPLC/UV VIS; settings: for Total impurities % Vs active ingredient: stored 3 months at 25° C./60% relative humidity
[2] = Stability of single, double and triple combination aerosol solution formulations: residual content of active ingredient in the can; format: physicochemical; settings: for Residual % amount ± standard deviation: stored 3 months at 25° C./60% relative humidity, versus amount at time 0
Protocol: +25° C./60% relative humidity (accelerated storage conditions);
+30° C./65% relative humidity; and
+40° C./75% relative humidity.

[3] = triple combination FF+GLY+BDP, versus initial amount of the active ingredient
[4] = triple combination FF+GLY+BDP aerosol solution
[5] = triple combination, +5° C. to +40° C./75% RH, 1, 2 and 3 months

| SMILES | Total impurities % Vs active ingredient ([1]; double combination FF + BDP) | Total impurities % Vs active ingredient ([1]; double combination FF + Gly) | level of degradation products (HPLC/UV) ([1]; formulations comprising both formoterol and GLY) | Total impurities % Vs active ingredient [1, 3] | Residual % amount ± standard deviation ([2]; double combination FF + BDP) | Residual % amount ± standard deviation [2, 4] | can content versus time and temperature of storage [2, 5] | Residual % amount ± standard deviation ([2]; double combination FF + Gly) | can content versus time and temperature of storage ([2]; double combination FF+GLY, all tested storage conditions) | can content versus time and temperature of storage ([2]; single agent GLY formulation in the presence of 1M HCl) | can content versus time and temperature of storage ([2]; single agent GLY formulation, acid omitted) |
| --- | --- | --- | --- | --- | --- | --- | --- | --- | --- | --- | --- |
| COc1ccc(C[C@@H](C)NC[C@H](O)c2ccc(O)c(NC=O)c2)cc1.COc1ccc(C[C@@H](C)NC[C@H](O)c2ccc(O)c(NC=O)c2)cc1.O=C(O)/C=C/C(=O)O [FF, formoterol fumarate] | 0.80% | 1.3% | high levels of degradation products | 1.1% |  |  |  |  |  |  |  |
| CCC(=O)OCC(=O)[C@@]1(OC(=O)CC)[C@@H](C)C[C@H]2[C@@H]3CCC4=CC(=O)C=C[C@]4(C)[C@@]3(Cl)[C@@H](O)C[C@@]21C [BDP, beclometasone dipropionate] | 0.20% |  |  | 0.21% | 98.9 ± 0.6% | 94.5 ± 0.3% | not significantly affected by time and temperature |  |  |  |  |
| C[N+]1(C)CCC(OC(=O)C(O)(c2ccccc2)C2CCCC2)C1.[Cl-] (stereo not drawn) [Gly, 3-[(cyclopentylhydroxyphenyl-acetyl)oxy]-1,1-dimethylpyrrolidinium chloride] |  |  |  |  |  | 96.4 ± 1.3% | not significantly affected by time and temperature | 96.0 ± 0.1% | remains stable under all of the tested conditions | maintain a constant content | highly dependent on time and temperature of storage |

Reference: patent US20140363384A1, “COMBINATION THERAPY FOR COPD” (CHIESI FARMACEUTICI S.p.A., priority 2009, published 2014)
